Earlier results, collected in patent US20010053381A1, “System and method for treating kidney diseases in diabetic and non-diabetic patients” (priority 2000, published 2001).

Tests used:
[1] = tested on: patients with type 1 DM and diabetic nephropathy

## insulin [CIIIT]
[1]; 37 months, type 1 DM patients
  progression of overt diabetic nephropathy: arrest or appreciably reduce the progression
[1]; baseline, 31 patients with type 1 DM and diabetic nephropathy
  Creatinine clearance at baseline: 46.1 ± 3.0 mL/min
[1]; end of observation period (37 months), 31 patients with type 1 DM and diabetic nephropathy
  Creatinine clearance at the end of the observation period: 46.0 ± 3.9 mL/min
[1]; value after decline during the study period, P=0.0062
  hemoglobin Alc levels, after study period: 7.6±0.3%
[1]; value before decline, patients with type 1 DM and diabetic nephropathy
  hemoglobin Alc levels, start of study period: 8.6±0.6%
Patients with type 1 DM
  blood pressure control: improve blood pressure control substantially
  reduction of antihypertensive medication requirements: 46%
